# Assay results taken from ChEMBL document CHEMBL1137935 (Bioorg Med Chem Lett, 2004).
# The source made the active and inactive calls. No cut-off for these calls is given here.
# Experiments:
# [1] = target: T1, Adenosine receptor A1 (Cavia porcellus) (UniProt P47745); test: Binding affinity against adenosine A1 receptor using [3H]CPX in guinea pig DDT membrane; 1666+/-556
# T1 sequence (whole entry): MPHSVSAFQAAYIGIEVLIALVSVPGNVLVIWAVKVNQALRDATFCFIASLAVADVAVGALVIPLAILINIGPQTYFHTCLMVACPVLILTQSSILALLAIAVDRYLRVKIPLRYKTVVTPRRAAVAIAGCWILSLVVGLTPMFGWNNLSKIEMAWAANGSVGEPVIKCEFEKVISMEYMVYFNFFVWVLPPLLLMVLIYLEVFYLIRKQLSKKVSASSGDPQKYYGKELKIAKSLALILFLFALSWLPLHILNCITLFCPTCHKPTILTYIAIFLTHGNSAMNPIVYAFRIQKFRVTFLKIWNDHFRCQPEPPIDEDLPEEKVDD
# [2] = target: T1, Adenosine receptor A1 (Cavia porcellus); test: Binding affinity against […] using [35S]GTP-gamma-S, radioligand in guinea pig.; assay type: functional
# [3] = target: T1, Adenosine receptor A1 (Cavia porcellus); test: Binding affinity against adenosine A1 receptor using [3H]CPX in guinea pig DDT membrane; 354+/-113
# [4] = target: T1, Adenosine receptor A1 (Cavia porcellus); test: Binding affinity against adenosine A1 receptor using [3H]CCPA in guinea pig DDT membrane; assay type: cell membranes
# [5] = target: T1, Adenosine receptor A1 (Cavia porcellus); test: Binding affinity against adenosine A1 receptor using [3H]CPX in guinea pig DDT membrane; assay type: cell membranes
# [6] = target: T1, Adenosine receptor A1 (Cavia porcellus)
# [7] = tested on: Adenosine receptor A1 (Cavia porcellus); test: Binding affinity against […] using [35S]GTP-gamma-S, in guinea pig; not active
# [8] = target: T1, Adenosine receptor A1 (Cavia porcellus); remark: listed apart in the source
# [9] = target: T1, Adenosine receptor A1 (Cavia porcellus); remark: listed apart in the source
# [10] = target: T1, Adenosine receptor A1 (Cavia porcellus); test: Binding affinity against adenosine A1 receptor using [3H]CPX in guinea pig DDT membrane; 166+/-75
# [11] = target: T1, Adenosine receptor A1 (Cavia porcellus); test: Binding affinity against adenosine A1 receptor using [3H]CCPA in guinea pig DDT membrane; 0.93+/-0.92
# [12] = target: T1, Adenosine receptor A1 (Cavia porcellus); remark: listed apart in the source
# [13] = target: T1, Adenosine receptor A1 (Cavia porcellus); remark: listed apart in the source
# [14] = target: T1, Adenosine receptor A1 (Cavia porcellus); test: Binding affinity against adenosine A1 receptor using [3H]CCPA in guinea pig DDT membrane; 2.73+/-0.49
# [15] = target: T1, Adenosine receptor A1 (Cavia porcellus); test: Binding affinity against adenosine A1 receptor using [3H]CPX in guinea pig DDT membrane; 5855+/-1208
# [16] = target: T1, Adenosine receptor A1 (Cavia porcellus); test: Binding affinity against adenosine A1 receptor using [3H]CCPA in guinea pig DDT membrane; 243+/-107
# [17] = target: T1, Adenosine receptor A1 (Cavia porcellus); test: Binding affinity against adenosine A1 receptor using [3H]CPX in guinea pig DDT membrane; 503+/-262
# [18] = target: T1, Adenosine receptor A1 (Cavia porcellus); test: Binding affinity against adenosine A1 receptor using [3H]CPX in guinea pig DDT membrane; 1143+/-426
# [19] = target: T1, Adenosine receptor A1 (Cavia porcellus); test: Binding affinity against adenosine A1 receptor using [3H]CCPA in guinea pig DDT membrane; 160+/-41
# [20] = target: T1, Adenosine receptor A1 (Cavia porcellus); test: Binding affinity against adenosine A1 receptor using [3H]-CPX in guinea pig DDT membrane; 4191+/-922
# [21] = target: T1, Adenosine receptor A1 (Cavia porcellus); test: Binding affinity against adenosine A1 receptor using [3H]CCPA in guinea pig DDT membrane; 7.5+/-1.9
# [22] = target: T1, Adenosine receptor A1 (Cavia porcellus); test: Binding affinity against adenosine A1 receptor using [3H]CPX in guinea pig DDT membrane; 343+/-137
# [23] = target: T1, Adenosine receptor A1 (Cavia porcellus); test: Binding affinity against adenosine A1 receptor using [3H]CPX in guinea pig DDT membrane; 473+/-329
# [24] = target: T1, Adenosine receptor A1 (Cavia porcellus); test: Binding affinity against adenosine A1 receptor using [3H]CPX in guinea pig DDT membrane; 614+/-78
# [25] = target: T1, Adenosine receptor A1 (Cavia porcellus); test: Binding affinity against adenosine A1 receptor using [3H]CCPA in guinea pig DDT membrane; 102+/-45
# [26] = target: T1, Adenosine receptor A1 (Cavia porcellus); test: Binding affinity against adenosine A1 receptor using [3H]CPX in guinea pig DDT membrane; 1571+/-245
# [27] = target: T1, Adenosine receptor A1 (Cavia porcellus); test: Binding affinity against adenosine A1 receptor using [3H]-CCPA in guinea pig DDT membrane; 180+/-23
# [28] = target: T1, Adenosine receptor A1 (Cavia porcellus); test: Binding affinity against adenosine A1 receptor using [3H]CPX in guinea pig DDT membrane; 6250+/-1767
# [29] = target: T1, Adenosine receptor A1 (Cavia porcellus); test: Binding affinity against adenosine A1 receptor using [3H]CCPA in guinea pig DDT membrane; 2400+/-16
# [30] = target: T1, Adenosine receptor A1 (Cavia porcellus); test: Binding affinity against adenosine A1 receptor using [3H]CPX in guinea pig DDT membrane; 338+/-98
# [31] = target: T1, Adenosine receptor A1 (Cavia porcellus); test: Binding affinity against adenosine A1 receptor using [3H]CCPA in guinea pig DDT membrane; 96+/-11
# [32] = target: T1, Adenosine receptor A1 (Cavia porcellus); remark: listed apart in the source
# [33] = target: T1, Adenosine receptor A1 (Cavia porcellus); test: Binding affinity against adenosine A1 receptor using [3H]CPX in guinea pig DDT membrane; 1945+/-1316
# [34] = target: T1, Adenosine receptor A1 (Cavia porcellus); test: Binding affinity against adenosine A1 receptor using [3H]CPX in guinea pig DDT membrane; 400+/-38
# [35] = target: T1, Adenosine receptor A1 (Cavia porcellus); test: Binding affinity against adenosine A1 receptor using [3H]CPX in guinea pig DDT membrane; 913+/-517
# [36] = target: T1, Adenosine receptor A1 (Cavia porcellus); test: Binding affinity against adenosine A1 receptor using [3H]CPX in guinea pig DDT membrane; 158+/-21
# [37] = target: T1, Adenosine receptor A1 (Cavia porcellus); test: Binding affinity against adenosine A1 receptor using [3H]CCPA in guinea pig DDT membrane; 21+/-0
# [38] = target: T1, Adenosine receptor A1 (Cavia porcellus); remark: listed apart in the source
# [39] = target: T1, Adenosine receptor A1 (Cavia porcellus); remark: listed apart in the source
# [40] = target: T1, Adenosine receptor A1 (Cavia porcellus); test: Binding affinity against adenosine A1 receptor using [3H]CPX in guinea pig DDT membrane; 5497+/-180
# [41] = target: T1, Adenosine receptor A1 (Cavia porcellus); test: Binding affinity against adenosine A1 receptor using [3H]CCPA in guinea pig DDT membrane; 971+/-139
compound,measurement,setting,value
COc1ccc2nc(SC[C@H]3OC(n4cnc5c(NC6CCCC6)ncnc54)[C@H](O)[C@@H]3O)sc2c1 (some centres undefined),Ki low,[1],1670 nM
same,efficacy relative to CPA,[2],105%
COc1ccc2sc(SC[C@H]3OC(n4cnc5c(NC6CCCC6)ncnc54)[C@H](O)[C@@H]3O)nc2c1 (some centres undefined),Ki low,[3],354 nM
same,Ki high,[4],222 nM
same,efficacy relative to CPA,[2],94%
Cn1ccnc1SC[C@H]1OC(n2cnc3c(NC4CCCC4)ncnc32)[C@H](O)[C@@H]1O (some centres undefined),efficacy relative to CPA,[2],112%
same,Ki low,[5],1340 nM
OC[C@H]1O[C@@H](n2cnc3c(NC4CCCC4)ncnc32)[C@H](O)[C@@H]1O,Ki high,[4],0.8 nM
same,efficacy relative to CPA,[2],100%
same,Ki low,[6],19.5 nM
O[C@@H]1[C@@H](COc2ccccc2F)OC(n2cnc3c(NC4CCCC4)ncnc32)[C@@H]1O (some centres undefined),Ki low,[5],4390 nM
same,CPA,[7],inactive
O[C@@H]1[C@@H](CSc2ccccc2F)OC(n2cnc3c(NC4CCCC4)ncnc32)[C@@H]1O (some centres undefined),Ki high,[4],33 nM
same,efficacy relative to CPA,[2],90%
same,Ki low,[8],287 nM
O[C@@H]1[C@@H](CSc2nc3ccccc3s2)OC(n2cnc3c(NC4CCCC4)ncnc32)[C@@H]1O (some centres undefined),efficacy relative to CPA,[2],95%
same,Ki low,[9],1770 nM
O[C@@H]1[C@@H](CSc2nccs2)OC(n2cnc3c(NC4CCCC4)ncnc32)[C@@H]1O (some centres undefined),Ki low,[10],166 nM
same,Ki high,[11],0.93 nM
same,efficacy relative to CPA,[2],105%
"CNC(=O)OC[C@H]1OC(n2cnc3c(NC4CCOC4)ncnc32)[C@H](O)C1O (single isomer, unassigned)",Ki low,[12],3610 nM
same,Ki high,[13],167 nM
"Cc1cc(COC[C@H]2OC(n3cnc4c(NC5CCOC5)ncnc43)[C@H](O)C2O)no1 (single isomer, unassigned)",Ki high,[14],2.73 nM
same,efficacy relative to CPA,[2],84%
same,Ki low,[5],192 nM
"Cc1cccc(C)c1SC[C@H]1OC(n2cnc3c(NC4CCOC4)ncnc32)[C@H](O)C1O (single isomer, unassigned)",Ki low,[15],5860 nM
same,Ki high,[16],243 nM
same,efficacy relative to CPA,[2],12%
"Cc1ccccc1OC[C@H]1OC(n2cnc3c(NC4CCOC4)ncnc32)[C@H](O)C1O (single isomer, unassigned)",Ki low,[17],503 nM
same,efficacy relative to CPA,[2],61%
"Cc1ccccc1SC[C@H]1OC(n2cnc3c(NC4CCOC4)ncnc32)[C@H](O)C1O (single isomer, unassigned)",Ki low,[18],1140 nM
same,Ki high,[19],160 nM
same,efficacy relative to CPA,[2],81%
"Cc1csc(SC[C@H]2OC(n3cnc4c(NC5CCOC5)ncnc43)[C@H](O)C2O)n1 (single isomer, unassigned)",efficacy relative to CPA,[2],86%
same,Ki low,[5],> 5000 nM
"Cn1ccnc1SC[C@H]1OC(n2cnc3c(NC4CCOC4)ncnc32)[C@H](O)C1O (single isomer, unassigned)",Ki low,[20],4190 nM
same,efficacy relative to CPA,[2],84%
"OC1[C@@H](O)C(n2cnc3c(NC4CCOC4)ncnc32)O[C@@H]1COCc1ccccc1 (single isomer, unassigned)",Ki high,[21],7.5 nM
same,efficacy relative to CPA,[2],98%
same,Ki low,[5],165 nM
"OC1[C@@H](O)C(n2cnc3c(NC4CCOC4)ncnc32)O[C@@H]1COc1ccc(F)cc1 (single isomer, unassigned)",Ki low,[22],343 nM
same,efficacy relative to CPA,[2],71%
"OC1[C@@H](O)C(n2cnc3c(NC4CCOC4)ncnc32)O[C@@H]1COc1ccccc1Cl (single isomer, unassigned)",Ki low,[23],473 nM
same,efficacy relative to CPA,[2],62%
"OC1[C@@H](O)C(n2cnc3c(NC4CCOC4)ncnc32)O[C@@H]1CSc1c(Cl)cccc1Cl (single isomer, unassigned)",Ki low,[24],614 nM
same,Ki high,[25],102 nM
same,efficacy relative to CPA,[2],89%
"OC1[C@@H](O)C(n2cnc3c(NC4CCOC4)ncnc32)O[C@@H]1CSc1cccc(F)c1 (single isomer, unassigned)",Ki low,[26],1570 nM
same,Ki high,[27],180 nM
same,efficacy relative to CPA,[2],84%
"OC1[C@@H](O)C(n2cnc3c(NC4CCOC4)ncnc32)O[C@@H]1CSc1ccccc1C(F)(F)F (single isomer, unassigned)",Ki low,[28],6250 nM
same,Ki high,[29],2400 nM
same,CPA,[7],inactive
"OC1[C@@H](O)C(n2cnc3c(NC4CCOC4)ncnc32)O[C@@H]1CSc1ccccc1Cl (single isomer, unassigned)",Ki low,[30],338 nM
same,Ki high,[31],96 nM
same,efficacy relative to CPA,[2],74%
"OC1[C@@H](O)C(n2cnc3c(NC4CCOC4)ncnc32)O[C@@H]1CSc1ccccn1 (single isomer, unassigned)",efficacy relative to CPA,[2],110%
same,Ki low,[32],894 nM
"OC1[C@@H](O)C(n2cnc3c(NC4CCOC4)ncnc32)O[C@@H]1CSc1nc2ccc(Cl)cc2o1 (single isomer, unassigned)",Ki low,[33],1940 nM
same,efficacy relative to CPA,[2],99%
"OC1[C@@H](O)C(n2cnc3c(NC4CCOC4)ncnc32)O[C@@H]1CSc1nc2ccccc2s1 (single isomer, unassigned)",Ki low,[34],400 nM
same,efficacy relative to CPA,[2],100%
"OC1[C@@H](O)C(n2cnc3c(NC4CCOC4)ncnc32)O[C@@H]1CSc1ncccn1 (single isomer, unassigned)",Ki low,[35],913 nM
same,efficacy relative to CPA,[2],89%
"OC1[C@@H](O)C(n2cnc3c(NC4CCOC4)ncnc32)O[C@@H]1CSc1nccs1 (single isomer, unassigned)",Ki low,[36],158 nM
same,Ki high,[37],21 nM
same,efficacy relative to CPA,[2],106%
"OC[C@H]1O[C@@H](n2cnc3c(N[C@@H]4CCOC4)ncnc32)[C@H](O)C1O (single isomer, unassigned)",Ki low,[38],543 nM
same,Ki high,[39],3.25 nM
"OC1[C@@H](O)[C@H](n2cnc3c(NC4CCOC4)ncnc32)O[C@@H]1CSc1ccc(F)cc1F (single isomer, unassigned; 19)",Ki low,[40],5500 nM
same,Ki high,[41],971 nM
same,efficacy relative to CPA,[2],86%
"OC1[C@@H](O)[C@H](n2cnc3c(NC4CCOC4)ncnc32)O[C@@H]1CSc1ccc(F)cc1F (single isomer, unassigned; 26)",efficacy relative to CPA,[2],88%
same,Ki low,[5],494 nM
